Experiments:
saphenous artery rings = assay: Vasorelaxant effect in vitro (phenylephrine-contracted artery rings); set-up: species or system Rabbits; details: rabbit saphenous artery rings, contraction induced by phenylephrine, concentration reducing contraction by 50%
Protocol: Rabbits are anesthetized and sacrificed by intravenous injection of thiopental sodium (about 50 mg/kg) and exsanguinated. The saphenous artery is removed and divided into rings 3 mm wide. The rings are mounted singly on in each case a pair of triangular hooks open at the end and made of 0.3 mm-thick special wire (Remanium®). Each ring is placed under an initial tension in 5 ml organ baths with Krebs-Henseleit solution which is at 37° C., is gassed with carbogen and has the following composition: NaCl 119 mM; KCl 4.8 mM; CaCl2×2H2O 1 mM; MgSO4×7H2O 1.4 mM; KH2PO4 1.2 mM; NaHCO3 25 mM; glucose 10 mM; bovine serum albumin 0.001%. The force of contraction is detected with Statham UC2 cells, amplified and digitized via A/D converters (DAS-1802 HC, Keithley Instruments, Munich) and recorded in parallel on chart recorders. Contractions are induced by addition of phenylephrine.
After several (generally 4) control cycles, the substance to be investigated is added in each further run in increasing dosage, and the height of the contraction achieved under the influence of the test substance is compared with the height of the contraction reached in the last preceding run. The concentration necessary to reduce the contraction reached in the preceding control by 50% is calculated from this (IC50). The standard application volume is 5 μl. The proportion of DMSO in the bath solution corresponds to 0.1%.

[1] = target: T1, Heme-containing sGC (recombinant soluble guanylate cyclase) (Rattus norvegicus, UniProt P20595); assay: Stimulation of recombinant soluble guanylate cyclase (sGC) in vitro, heme-containing enzyme; assay type: biochemical
T1 construct: made in house
T1 sequence (P20595 1-619): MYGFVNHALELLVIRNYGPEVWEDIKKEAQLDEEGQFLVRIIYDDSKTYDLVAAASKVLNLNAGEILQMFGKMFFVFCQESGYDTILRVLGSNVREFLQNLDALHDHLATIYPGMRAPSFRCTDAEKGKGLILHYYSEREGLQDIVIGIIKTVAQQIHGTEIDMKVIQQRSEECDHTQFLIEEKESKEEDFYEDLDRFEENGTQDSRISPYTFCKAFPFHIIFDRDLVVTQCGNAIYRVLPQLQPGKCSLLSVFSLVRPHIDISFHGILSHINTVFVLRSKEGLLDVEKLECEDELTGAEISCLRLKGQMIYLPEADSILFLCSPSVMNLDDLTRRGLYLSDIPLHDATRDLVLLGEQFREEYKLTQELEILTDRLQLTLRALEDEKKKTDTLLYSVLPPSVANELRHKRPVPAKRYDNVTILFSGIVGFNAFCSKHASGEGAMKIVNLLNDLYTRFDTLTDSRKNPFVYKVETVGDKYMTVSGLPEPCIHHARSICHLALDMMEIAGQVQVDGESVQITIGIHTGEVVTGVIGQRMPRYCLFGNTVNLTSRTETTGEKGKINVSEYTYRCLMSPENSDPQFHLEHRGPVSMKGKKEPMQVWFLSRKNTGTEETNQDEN
T1 sequence (P19686 1-690 partner): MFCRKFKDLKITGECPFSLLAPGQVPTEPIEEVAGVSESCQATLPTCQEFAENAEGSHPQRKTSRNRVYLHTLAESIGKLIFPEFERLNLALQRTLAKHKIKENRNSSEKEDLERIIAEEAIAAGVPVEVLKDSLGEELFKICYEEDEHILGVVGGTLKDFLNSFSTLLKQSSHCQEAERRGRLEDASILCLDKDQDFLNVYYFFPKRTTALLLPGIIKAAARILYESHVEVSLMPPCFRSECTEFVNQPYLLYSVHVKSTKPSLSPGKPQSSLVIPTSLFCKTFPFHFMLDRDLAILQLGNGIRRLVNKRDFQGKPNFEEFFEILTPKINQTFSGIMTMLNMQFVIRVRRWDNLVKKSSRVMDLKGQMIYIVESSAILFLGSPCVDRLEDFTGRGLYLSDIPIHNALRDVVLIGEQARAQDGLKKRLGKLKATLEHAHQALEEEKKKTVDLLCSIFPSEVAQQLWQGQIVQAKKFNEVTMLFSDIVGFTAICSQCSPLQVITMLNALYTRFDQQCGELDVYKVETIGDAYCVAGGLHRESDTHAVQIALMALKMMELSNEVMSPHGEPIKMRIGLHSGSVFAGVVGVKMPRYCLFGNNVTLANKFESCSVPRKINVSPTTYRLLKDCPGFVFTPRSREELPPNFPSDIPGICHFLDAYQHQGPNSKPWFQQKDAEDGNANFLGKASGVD
Text: Hoenicka, E. M. Becker, H. Apeler, T. Sirichoke, H. Schroeder, R. Gerzer and J.-P. Stasch, “Purified soluble guanylyl cyclase expressed in a baculovirus/Sf9 system: Stimulation by YC-1, nitric oxide, and carbon oxide”, J. Mol. Med. 77 (1999), 14-23. The heme-free guanylate cyclase is obtained by adding Tween 20 to the sample buffer (0.5% in the final concentration).
(§1) The activation of sGC by a test substance is reported as n-fold stimulation of the basal activity.

[2] = target: T2, Heme-free sGC (recombinant soluble guanylate cyclase) (Rattus norvegicus, UniProt P20595); assay: Stimulation of recombinant soluble guanylate cyclase (sGC) in vitro, heme-free enzyme; assay type: biochemical; details: 10 μM Example 9; heme-free enzyme obtained with 0.5% Tween 20
T2 construct: made in house
T2 sequence (P20595 1-619): T1 sequence (P20595 1-619)
T2 sequence (P19686 1-690 partner): T1 sequence (P19686 1-690 partner)
Protocol: Investigations on the stimulation of recombinant soluble guanylate cyclase (sGC) by the compounds according to the invention with and without sodium nitroprusside, and with and without the heme-dependent sGC inhibitor 1H-1,2,4-oxadiazole-(4,3a)-quinoxalin-1-one (ODQ) are carried out by the method described in detail in the following reference: M. Hoenicka, E. M. Becker, H. Apeler, T. Sirichoke, H. Schroeder, R. Gerzer and J.-P. Stasch, “Purified soluble guanylyl cyclase expressed in a baculovirus/Sf9 system: Stimulation by YC-1, nitric oxide, and […]”, J. Mol. Med. 77 (1999), 14-23. The heme-free guanylate cyclase is obtained by adding Tween 20 to the sample buffer (0.5% in the final concentration).
as §1

CC(C)(C)c1ccc(COc2ccccc2/C=C/C(CCC2(CC(=O)O)CC2)Cc2ccc(C(=O)O)cc2)cc1 (racemic) [Example 6, 4-((3E)-4-{2-[(4-tert-Butylbenzyl)oxy]phenyl}-2-{2-[1-(carboxymethyl)cyclopropyl]ethyl}but-3-en-1-yl)benzoic acid]
IC50 (saphenous artery rings): 33 nM

O=C(O)CC1(CCC(/C=C/c2ccccc2OCCCCCc2ccccc2)Cc2ccc(C(=O)O)cc2)CC1 (racemic) [Example 8, 4-((3E)-2-{2-[1-(Carboxymethyl)cyclopropyl]ethyl}-4-{2-[(5-phenylpentyl)oxy]phenyl}but-3-en-1-yl)benzoic acid]
IC50 (saphenous artery rings): 1020 nM

CC(C)(C)c1ccc(COc2ccccc2/C=C/C(CCC2(CC(=O)O)CC2)Cc2ccc(C(=O)O)cc2)cc1 (racemic) [Example 5]
IC50 (saphenous artery rings; Oryctolagus cuniculus): 58 nM

O=c1onc2cnc3ccccc3n12 [ODQ, 1H-1,2,4-oxadiazole-(4,3a)-quinoxalin-1-one, reference compound]
Stimulation (n-fold) of heme-containing sGC with ODQ alone ([1]; 10 μM ODQ, 0.0 μM Example 9): 3.7 n-fold

O=C(O)CC1(CCC(/C=C/c2ccccc2OCCCCCc2ccccc2)Cc2ccc(C(=O)O)cc2)CC1 (racemic) [Example 9, 4-((3E)-2-{2-[1-(Carboxymethyl)cyclopropyl]ethyl}-4-{2-[(5-phenylpentyl)oxy]phenyl}but-3-en-1-yl)benzoic acid]
Stimulation (n-fold) of heme-containing sGC, Basal ([1]; 10 μM Example 9, no addition): 8.0 n-fold
Stimulation (n-fold) of heme-containing sGC, +0.1 μM DEA/NO ([1]; 10 μM Example 9 plus 0.1 μM DEA/NO): 109.2 n-fold
Stimulation (n-fold) of heme-containing sGC, +10 μM ODQ ([1]; 10 μM Example 9 plus 10 μM ODQ): 41.0 n-fold
Synergism of combination with NO donor DEA/NO on heme-containing sGC ([1]; combination of Example 9 and DEA/NO): no synergistic effect
Effect of heme-dependent sGC inhibitor ODQ on sGC activation ([1]; with ODQ): not blocked
IC50 (saphenous artery rings): 406 nM
Stimulation (n-fold) of heme-free sGC, Basal [2]: 21.0 n-fold

CC(C)(C)c1ccc(COc2ccccc2/C=C/C(CCc2ccc(C(=O)O)cc2)CCC2(CC(=O)O)CC2)cc1 (racemic) [Example 2, 4-((4E)-5-{2-[(4-tert-Butylbenzyl)oxy]phenyl}-3-{2-[1-(carboxymethyl)cyclopropyl]ethyl}pent-4-en-1-yl)benzoic acid]
IC50 (saphenous artery rings; Oryctolagus cuniculus): 2.9 nM

CC(C)(C)c1ccc(COc2ccccc2/C=C/C(CCc2ccc(C(=O)O)cc2)CCC2(CC(=O)O)CC2)cc1 (racemic) [Example 3, 4-((4E)-5-{2-[(4-tert-Butylbenzyl)oxy]phenyl}-3-{2-[1-(carboxymethyl)cyclopropyl]ethyl}pent-4-en-1-yl)benzoic acid]
IC50 (saphenous artery rings): 5.8 nM

CCN(CC)[N+]([O-])=NO [DEA/NO, 2-(N,N-diethylamino)diazenolate 2-oxide, reference compound]
Stimulation (n-fold) of heme-containing sGC by DEA/NO alone ([1]; 0.1 μM DEA/NO, 0.0 μM Example 9): 101.0 n-fold
